Data: PubChem BioAssay AID1963432 (Molecular Pharmacology Branch, DTP, NCI, 2024)

Test system: SYO-1 complex spheroid growth, percent test/control
Assay: Anticancer human tumor SYO-1 cell line growth inhibition [Asc];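 also: compound exposure lasted 7 days after spheroids grew 3 days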;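 as to viability, T/C: 100% = DMSO vehicle control viability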
Conditions: for IC50: curve of first compound; for viability, T/C: stronger effect = lower value
In short: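 Concentration series start at each agent's clinical Cmax, or at 10 microM when none is established, and drop in half-log steps; agents are applied alone or together to complex spheroids built with HUVEC and hMSC.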

## O=C(c1ccc(F)c(F)c1Nc1ccc(I)cc1F)N1CC(O)([C@@H]2CCCCN2)C1 + CNC(C)C(=O)NC1CN(S(=O)(=O)c2cccc(S(=O)(=O)N3CCC4CCC(C(=O)NC(c5ccccc5)c5ccccc5)N4C(=O)C(NC(=O)C(C)NC)C3)c2)CCC2CCC(C(=O)NC(c3ccccc3)c3ccccc3)N2C1=O
Second compound 0.01 µM
  IC50: > 1 µM
Second compound 0.0316 µM
  IC50: > 1 µM
Second compound 0.1 µM
  IC50: > 1 µM
Second compound 0.316 µM
  IC50: > 1 µM
Second compound 1 µM
  IC50: > 1 µM
Second compound 0.01 µM, first compound 0.00316 µM
  viability, T/C: 97.8%
Second compound 0.01 µM, first compound 0.01 µM
  viability, T/C: 105%
Second compound 0.01 µM, first compound 0.0316 µM
  viability, T/C: 102%
Second compound 0.01 µM, first compound 0.1 µM
  viability, T/C: 98.1%
Second compound 0.01 µM, first compound 0.316 µM
  viability, T/C: 97.6%
Second compound 0.01 µM, first compound 1 µM
  viability, T/C: 103%
Second compound 0.0316 µM, first compound 0.00316 µM
  viability, T/C: 106%
Second compound 0.0316 µM, first compound 0.01 µM
  viability, T/C: 106%
Second compound 0.0316 µM, first compound 0.0316 µM
  viability, T/C: 95.2%
Second compound 0.0316 µM, first compound 0.1 µM
  viability, T/C: 95.2%
Second compound 0.0316 µM, first compound 0.316 µM
  viability, T/C: 95%
Second compound 0.0316 µM, first compound 1 µM
  viability, T/C: 94.5%
Second compound 0.1 µM, first compound 0.00316 µM
  viability, T/C: 99.5%
Second compound 0.1 µM, first compound 0.01 µM
  viability, T/C: 106%
Second compound 0.1 µM, first compound 0.0316 µM
  viability, T/C: 105%
Second compound 0.1 µM, first compound 0.1 µM
  viability, T/C: 92.1%
Second compound 0.1 µM, first compound 0.316 µM
  viability, T/C: 96.9%
Second compound 0.1 µM, first compound 1 µM
  viability, T/C: 93.6%
Second compound 0.316 µM, first compound 0.00316 µM
  viability, T/C: 113%
Second compound 0.316 µM, first compound 0.01 µM
  viability, T/C: 104%
Second compound 0.316 µM, first compound 0.0316 µM
  viability, T/C: 99.6%
Second compound 0.316 µM, first compound 0.1 µM
  viability, T/C: 96%
Second compound 0.316 µM, first compound 0.316 µM
  viability, T/C: 99.8%
Second compound 0.316 µM, first compound 1 µM
  viability, T/C: 97.8%
Second compound 1 µM, first compound 0.00316 µM
  viability, T/C: 97.7%
Second compound 1 µM, first compound 0.01 µM
  viability, T/C: 103%
Second compound 1 µM, first compound 0.0316 µM
  viability, T/C: 113%
Second compound 1 µM, first compound 0.1 µM
  viability, T/C: 98.4%
Second compound 1 µM, first compound 0.316 µM
  viability, T/C: 92.4%
Second compound 1 µM, first compound 1 µM
  viability, T/C: 91.2%

## Cc1nc(N2CCC3(CC2)COC(C)C3N)c(CO)nc1Sc1ccnc(N)c1Cl (configuration not stated) + Cc1c(S(C)(=O)=O)c(-c2cc(F)cc(N3CCN(c4ccc(NS(=O)(=O)c5ccc(NC(CCN6CCC(C(=O)OCCCP(=O)(O)O)CC6)CSc6ccccc6)c(S(=O)(=O)C(F)(F)F)c5)cc4)CC3)c2)c(-c2ccc(Cl)cc2)n1C(C)C
Second compound 0.0316 µM
  IC50: > 3 µM
Second compound 0.1 µM
  IC50: > 3 µM
Second compound 0.316 µM
  IC50: > 3 µM
Second compound 1 µM
  IC50: > 3 µM
Second compound 3.16 µM
  IC50: > 3 µM
Second compound 10 µM
  IC50: > 3 µM
Second compound 0.0316 µM, first compound 0.00949 µM
  viability, T/C: 93.6%
Second compound 0.0316 µM, first compound 0.03 µM
  viability, T/C: 99.6%
Second compound 0.0316 µM, first compound 0.0949 µM
  viability, T/C: 91.7%
Second compound 0.0316 µM, first compound 0.3 µM
  viability, T/C: 98.8%
Second compound 0.0316 µM, first compound 0.949 µM
  viability, T/C: 110%
Second compound 0.0316 µM, first compound 3 µM
  viability, T/C: 102%
Second compound 0.1 µM, first compound 0.00949 µM
  viability, T/C: 96%
Second compound 0.1 µM, first compound 0.03 µM
  viability, T/C: 94.8%
Second compound 0.1 µM, first compound 0.0949 µM
  viability, T/C: 97.3%
Second compound 0.1 µM, first compound 0.3 µM
  viability, T/C: 103%
Second compound 0.1 µM, first compound 0.949 µM
  viability, T/C: 100%
Second compound 0.1 µM, first compound 3 µM
  viability, T/C: 93.7%
Second compound 0.316 µM, first compound 0.00949 µM
  viability, T/C: 91.3%
Second compound 0.316 µM, first compound 0.03 µM
  viability, T/C: 88.2%
Second compound 0.316 µM, first compound 0.0949 µM
  viability, T/C: 98.9%
Second compound 0.316 µM, first compound 0.3 µM
  viability, T/C: 97.5%
Second compound 0.316 µM, first compound 0.949 µM
  viability, T/C: 103%
Second compound 0.316 µM, first compound 3 µM
  viability, T/C: 92.3%
Second compound 1 µM, first compound 0.00949 µM
  viability, T/C: 92.2%
Second compound 1 µM, first compound 0.03 µM
  viability, T/C: 95.7%
Second compound 1 µM, first compound 0.0949 µM
  viability, T/C: 93.2%
Second compound 1 µM, first compound 0.3 µM
  viability, T/C: 99.9%
Second compound 1 µM, first compound 0.949 µM
  viability, T/C: 98.7%
Second compound 1 µM, first compound 3 µM
  viability, T/C: 91%
Second compound 3.16 µM, first compound 0.00949 µM
  viability, T/C: 95.3%
Second compound 3.16 µM, first compound 0.03 µM
  viability, T/C: 91.2%
Second compound 3.16 µM, first compound 0.0949 µM
  viability, T/C: 89%
Second compound 3.16 µM, first compound 0.3 µM
  viability, T/C: 91.4%
Second compound 3.16 µM, first compound 0.949 µM
  viability, T/C: 95.5%
Second compound 3.16 µM, first compound 3 µM
  viability, T/C: 89.3%
Second compound 10 µM, first compound 0.00949 µM
  viability, T/C: 84%
Second compound 10 µM, first compound 0.03 µM
  viability, T/C: 82.8%
Second compound 10 µM, first compound 0.0949 µM
  viability, T/C: 94.8%
Second compound 10 µM, first compound 0.3 µM
  viability, T/C: 87.2%
Second compound 10 µM, first compound 0.949 µM
  viability, T/C: 95.8%
Second compound 10 µM, first compound 3 µM
  viability, T/C: 78.5%
